Test results taken from US8076485B2, “Methylphenidate derivatives and uses of them” (priority 2005, dated 2011).

How the values were obtained:
TCR-positive cells = assay: Annexin staining of TCR-positive cells (flow cytometry, cell death); type: cell-based, human; settings: PHA 5 μg/ml plus 50 μg/ml; PHA alone 67%
Procedure: After this incubation, PHA was added to give a final concentration of 5 μg/ml, and the cells were incubated for an additional 72 hours at 37° C., 5% CO2. All cultures were performed in triplicate. Cells were then removed by centrifugation at 1000 rpm for 10 minutes.
The cells were further analyzed by flow cytometry Annexin was used to determine populations of dead or dying cells. Anti-CD69 antibody was used to establish the level of cellular activation. Antibody to T-cell receptor αβ (TCR) was also used. Recombinant Annexin 5 (PE and FITC conjugates) and the antibodies were all purchase from Caltag (Burlingham, Calif.) and used following the manufacturer's recommendations.

[1] = test system: Jurkat T-lymphocyte leukemia cell line; assay: Jurkat cell viability (ETH-D1 / calcein AM); type: cell-based; settings: Jurkat cells, 72 hours, control 20.85% ± 1.42%
Procedure: The Jurkat T-lymphocyte leukemia cell line was obtained from American Type Culture Collection (ATCC), Rockville, Md. (catalog no. TIB-152). Jurkat cells, at 1×10^5 cells/ml, were cultured at 37° C. and 5% CO2 in IMDM medium (ATCC) with 10% FCS for 72 hours with 7.5 μg/ml or 15 μg/ml of the compound of formula II (Cpd II). Following the incubation, the cells were washed with Hepes buffered saline, split into three equal volumes, and then incubated with 5 μM ethidium bromide dimer-1 (ETH-D1) (obtained from Molecular Probes) and 5 μM calcein AM solution (obtained from Promega) for one hour at 37° C. and 5% CO2 in 96-well culture plates to assay for cell viability. The fluorescence in each well was measured using a plate reader at excitation/emission 485/530 nm and 530/645 nm. Relative percentage of dead to live cells was calculated by dividing ETH-D1 fluorescence by calcein AM fluorescence.

[2] = test system: CD3/CD28 stimulated TRiPS cells; assay: Custom AntibodyArray of cell extracts of CD3/CD28 stimulated TRiPS cells; type: cell-based, human; settings: 15 μg/ml, 30 minutes; antibody array, phospho-specific detection
Procedure: Day 18 TRiPS cells, 1×10^6, were incubated for 30 minutes at 37° C., either with nothing added (“Nil”), with 1 μl CD3/CD28 Dynabeads (Dynal, Oslo, Norway) (“CD3/CD28 beads”) per 100,000 cells, or with CD3/CD28 beads and 15 μg/ml of the compound of formula II (Cpd II). After the incubation, the cells were lysed in Cell-Lytic Mammalian Cell Extraction Reagent (Sigma). After centrifugation to pellet cellular debris, the supernatants (cell extracts) were obtained.
The cell extracts (supernatants) were then analyzed using a Custom AntibodyArray™ manufactured by Hypromatrix Inc., Worcester, Mass., following the manufacturer's instructions. The Custom AntibodyArray™ is a nylon membrane blotted with antibodies to the proteins listed below. Briefly, the cell extracts were incubated with duplicate Custom AntibodyArray™, s for 2 hours at room temperature with slow shaking, followed by three washes with Tris buffer (150 mM NaCl, 25 mM Tris, 0.05% Tween-20, pH 7.5). HRP-labeled antibodies specific for phosphorylated-tyrosine, phosphorylated-serine and phosphorylated-threonine in Tris buffer were added, and the arrays incubated for 2 hours. After three more washes with Tris buffer, a peroxidase-reactive luminescent substrate was added. The arrays were visualized by exposure to X-ray film. Densitometry of the X-ray films was measured by scanning and computer analysis.

c-Jun = c-Jun in VEGF-treated HUVECs (TransAM AP-1 assay); type: cell-based, human; settings: Cpd II at 15 μg/ml and 5 μg/ml
Procedure: The amount of c-Jun was determined using a TransAM™ AP-1 Family Transcription Factor Assay Kit and a Nuclear Extract Kit from Active Motif North America, Carlsbad, Calif., according to manufacturer's instructions. Briefly, a nuclear extract of the cells was prepared using the Nuclear Extract Kit. Then, the nuclear extract was added to the wells of a 96-well plate in which oligonucleotide containing a TPA-responsive element (TRE) was immobilized. Activator protein-1 (AP-1) dimers contained in the nuclear extract were bound to this oligonucleotide and were detected using an antibody specific for c-Jun. A secondary antibody conjugated to horseradish peroxidase (HRP) was next added to provide a colorimetric readout that was quantified by spectrophotometry (measurement at 450 nm).

[3] = test system: peripheral blood lymphocytes (PBL); assay: PHA-induced cell clumping of PBL; type: cell-based, human; settings: Example 1, PBL of donor GR283; compound 5, 15, 50 μg/ml; 5 μg/ml PHA; 72 hours
Procedure: Whole blood was drawn from GR283, a human volunteer with known allergies, into a glass vacutainer tube containing no anticoagulant. This blood was allowed to clot, and the serum was removed by centrifugation and then heat inactivated by placing it in a water bath at 56° C. for 30 minutes. Whole blood from GR283 was also drawn into a glass vacutainer tube containing heparin and used for peripheral blood lymphocytes (PBL) isolation as follows. Whole blood was layered over room temperature Histopaque 1077 solution and centrifuged at 2000 rpm for 15 minutes at room temperature. Cells at the plasma-Histopaque interface were then removed and washed with culture medium (IMDM medium with 10% heat-inactivated GR283 serum plus 1% penicillin/streptomycin) at 37° C.
The compound of formula II (see above) and methylphenidate (both obtained from Dr. Jeffrey D. Winkler, University of Pennsylvania, Philadelphia, Pa.) in culture medium were added to wells of a 96-well plate to give final concentrations of 5 μg/ml, 15 μg/ml and 50 μg/ml of the compound of formula II and of methylphenidate. […] Then, GR283's PBL in culture medium were added to the wells to give a final concentration of 150,000 cells per well, and the plates were incubated at 37° C., 5% CO2 for 24 hours. […]

COC(=O)C(c1ccc(-c2ccccc2)cc1)C1CCCCN1 (stereo not shown) [Cpd II]
Annexin staining of TCR-positive cells (cell death) (TCR-positive cells): 87% | Relative Percentage Dead/Live ([1]; 7.5 μg/ml): 16.74% ± 2.15% | Relative Percentage Dead/Live ([1]; 15 μg/ml): 40.79% ± 1.81% | Effect of Cpd II on the protein in CD3/CD28 stimulated TRiPS cells: 14-3-3 [2]: Slightly decreased the level | Effect of Cpd II on the protein in CD3/CD28 stimulated TRiPS cells: IL-2 [2]: Decreased level back to basal levels (Nil control) | Effect of Cpd II on the protein in CD3/CD28 stimulated TRiPS cells: IL-4 [2]: Decreased level back to basal levels (Nil control) | Effect of Cpd II on the protein in CD3/CD28 stimulated TRiPS cells: IL-7y [2]: Decreased level back to basal levels (Nil control) | Effect of Cpd II on the protein in CD3/CD28 stimulated TRiPS cells: IkB-r [2]: Decreased level back to basal levels (Nil control) | Effect of Cpd II on the protein in CD3/CD28 stimulated TRiPS cells: IkB-α [2]: Slightly decreased the level | Effect of Cpd II on the protein in CD3/CD28 stimulated TRiPS cells: IkB-β [2]: Decreased level back to basal levels (Nil control) | Effect of Cpd II on the protein in CD3/CD28 stimulated TRiPS cells: IkB-ε [2]: Slightly decreased the level | Effect of Cpd II on the protein in CD3/CD28 stimulated TRiPS cells: JAK2 [2]: Activated | Effect of Cpd II on the protein in CD3/CD28 stimulated TRiPS cells: JNK1 [2]: Decreased level back to basal levels (Nil control) | Effect of Cpd II on the protein in CD3/CD28 stimulated TRiPS cells: JNK2 [2]: Decreased level back to basal levels (Nil control) | Effect of Cpd II on the protein in CD3/CD28 stimulated TRiPS cells: JNK3 [2]: Decreased level back to basal levels (Nil control) | Effect of Cpd II on the protein in CD3/CD28 stimulated TRiPS cells: MEK1 [2]: Decreased level to below basal levels (Nil control) | Effect of Cpd II on the protein in CD3/CD28 stimulated TRiPS cells: MEKK1 [2]: Decreased level back to basal levels (Nil control) | Effect of Cpd II on the protein in CD3/CD28 stimulated TRiPS cells: PI3kinaseP85 [2]: Activated | Effect of Cpd II on the protein in CD3/CD28 stimulated TRiPS cells: RAP1 [2]: Activated | Effect of Cpd II on the protein in CD3/CD28 stimulated TRiPS cells: RAP2 [2]: Activated | Effect of Cpd II on the protein in CD3/CD28 stimulated TRiPS cells: STAT4 [2]: Activated | Effect of Cpd II on the protein in CD3/CD28 stimulated TRiPS cells: STAT5b [2]: Activated | Effect of Cpd II on the protein in CD3/CD28 stimulated TRiPS cells: STAT6 [2]: Slightly decreased the level | increase in the amount of c-Jun (c-Jun): completely eliminated the increase in the amount of c-Jun | amount of cell clumping induced by PHA [3]: reduced the amount of cell clumping induced by 5 μg/ml PHA in a dose-dependent manner
